Source: a melting point compilation (Tetko et al.)

melting point [°C] | SMILES
194 to 196 | CC(Cl)C(=O)Nc1ccc(N2CCCC2=O)cc1 (configuration not stated)
110 to 112 | O=C(O)CCc1nc2ccccc2o1
207 to 209 | NC(=O)c1cc(C(F)(F)F)ccc1N1CCCC1
94 to 96 | Nc1ccc(S(=O)(=O)C(F)(F)F)cc1
195 to 197 | N#Cc1cc2c(nc1N)CCCC2
245 to 247 | O=c1c2cc(Cl)cc(Cl)c2nc2n1CCC2
207 to 209 | CCCc1[nH]ncc1C(=O)O
228 to 230 | O=C(O)c1ccc(-c2cccs2)cc1F
145 to 147 | Cc1nc(-c2ccccn2)nc(O)c1C
49 to 51 | Cc1cc(O)cc(C(C)C)c1
114 to 116 | Cn1ncnc1COc1ccc(S(=O)(=O)Cl)cc1
75 to 77 | O=Cc1ccc(Cl)nc1
39 to 43 | N#Cc1ccc(CO)cc1
105 to 107 | Cc1nn(-c2ccccc2)c(Oc2ccc(F)cc2)c1C=O
108 to 110 | O=C(O)COc1ccccc1OCc1ccc(F)cc1
175 to 177 | CC(=O)NCCc1ccc(C(=O)O)cc1
45 to 49 | CCOCCCNC(=O)CC#N
134 to 136 | CCCCn1c(=O)[nH]c(=O)c2c1nc(CO)n2CCC
283 to 285 | Nc1nc(-c2ccc(N3CCCC3=O)cc2)cs1
129 to 131 | CCOc1ccc(NC(=O)CCl)cc1S(=O)(=O)N1CCCCC1
154 to 156 | CN1C(=O)CCC(C(=O)O)C1c1cccs1 (configuration not stated)
235 to 237 | O=C(O)c1cc(-c2ccc3c(c2)CCO3)no1
94 to 95 | CCOc1ccc(NS(=O)(=O)c2ccc(OC)c(N)c2)cc1
155 to 157 | NCC(CCC(=O)O)C(F)(F)F (configuration not stated)
294 to 296 | Cc1nc(S)c(C(N)=O)c(C)c1C

melting point [°C] | SMILES
153 to 155 | N#CCCN1C(=O)c2ccccc2C1=O
52 to 54 | CC(C)c1cc(N)n(C(C)C)n1
155 to 157 | NC(=O)c1ccc(CNc2cccc(F)c2)cc1
216 to 218 | Cc1cccc2[nH]c(C(=O)O)cc12
164 to 166 | CC1CCCCN1c1cc(C(=O)O)ccn1 (configuration not stated)
93 to 95 | CC(C)Oc1ccc(S(=O)(=O)Cl)c2ccccc12
112 to 114 | NNC(=O)C1CCCC1
170 to 172 | O=C(O)c1c[nH]c2cccc([N+](=O)[O-])c12
185 to 187 | O=C(O)c1ccc(COc2ccccc2Br)cc1
123 to 125 | Cc1nnc(Cl)c2ccccc12
145 to 147 | CNC(C)c1ccc(S(N)(=O)=O)cc1 (configuration not stated)
121 to 123 | COC(=O)c1cc(Cl)c2ccccc2n1
214 to 216 | O=C(O)Cc1csc(NC(=O)c2ccc(Br)o2)n1
241 to 243 | Cc1ccc(-n2nc(C)c(C(=O)O)c2Cl)cc1Cl
194 to 196 | Cc1cc(/C=C/C(=O)O)c(C)n1-c1ccc2c(c1)OCO2
136 to 138 | COC(=O)c1cc2c(OC)c(OC)c(OC)cc2[nH]1
176 to 178 | Nc1nc2c(s1)CNCC2
97 to 99 | O=S(=O)(c1cccc(F)c1)N1CCNCC1
299 to 301 | O=C(O)c1cc(/C=C/c2ccc(F)cc2)nc2ccc(Br)cc12
47 to 49 | O=[N+]([O-])c1cc(Br)cc(S(=O)(=O)Cl)c1
128 to 130 | NCC(=O)Nc1cccc2ncccc12
154 to 156 | Fc1ccccc1-c1nnc(S)[nH]1
144 to 146 | NS(=O)(=O)CCN1CCNCC1
152 to 154 | CCOc1ccc(S(N)(=O)=O)cc1OCC
112 to 114 | COCCNC(=O)c1ccc(Cl)nc1

melting point [°C] | SMILES
301 to 303 | CC1CCCC(C(N)C(=O)O)C1 (configuration not stated)
197 to 199 | Nc1nnc(Cc2ccc(F)cc2)[nH]1
129 to 131 | OCCN1CCN(c2ccc(CO)nn2)CC1
36 to 38 | C=CCOc1ccc(O)cc1
206 to 208 | Cc1nc(O)c2c(n1)CCCC2
59 to 61 | CNc1ccnc(C)c1
66 to 68 | COC(=O)c1c(CC(C)C)csc1N
84 to 86 | CN1C(=O)C=C(Br)C1=O
132 to 134 | Cc1ccc2cc(CCl)c(Cl)nc2c1
179 to 181 | CC(=O)Nc1cccc(NC(=O)C(Br)C(C)C)c1 (configuration not stated)
272 to 274 | Cn1cc(/C=C/C(=O)O)c(=O)n(C)c1=O
180 to 188 | O=C(O)c1ccc(-c2nc3ccccc3s2)o1
112 to 114 | Clc1nc(C2CC2)nc2sc3c(c12)CCCC3
299 to 301 | Oc1ncnc2c(F)cc(Br)cc12
57 to 59 | COC(=O)CS(N)(=O)=O
188 to 192 | CS(=O)(=O)c1nc2ccccc2[nH]1
52 to 54 | CCCCC1CCC(C(=O)CC#N)CC1 (configuration not stated)
211 to 213 | CCc1nc2ccccc2n1CC(=O)NN
116 to 118 | Cc1nnnn1-c1ccc(Br)cc1
135 to 137 | Cc1sc(N)nc1-c1ccc(F)c(F)c1
87 to 89 | CC(C)(C)Cc1cc(N)on1
101 to 103 | Cn1cc(CN=[N+]=[N-])c(-c2ccc(C#N)cc2)n1
82 to 84 | CCOC(=O)CN(C)c1ccncc1[N+](=O)[O-]
249 to 251 | NS(=O)(=O)c1cc2c(cc1Br)CCCC(=O)N2
100 to 102 | COc1ccc(OC)c(N2CC(C(=O)O)CC2=O)c1 (configuration not stated)

melting point [°C] | SMILES
61 to 63 | Cc1nn(-c2ccccc2)c(C)c1N
266 to 268 | Nc1nc(-c2cccnc2)no1
119 to 121 | CNS(=O)(=O)CC(=O)O
139 to 141 | Cc1ccc(Br)cc1S(N)(=O)=O
107 to 109 | Nc1ccc(F)c(S(=O)(=O)NC2CC2)c1
57 to 59 | COc1cc(OC)cc(Oc2ccc(C=O)cc2)c1
72 to 74 | NCc1ccc(Cn2cnc3ccccc32)cc1
114 to 116 | NC(=O)COc1cccc(CCl)c1
64 to 66 | N#Cc1cc(F)ccc1S(=O)(=O)Cl
166 to 168 | O=[N+]([O-])c1ccc(-c2ncon2)cc1
85 to 87 | O=[N+]([O-])c1ccc(Cl)c(S(=O)(=O)Cl)c1
239 to 241 | Nc1ccc(S(=O)(=O)Nc2ccccc2Cl)c(Cl)c1
167 to 169 | O=c1[nH]c(CCl)nc2scc(-c3ccccc3Cl)c12
197 to 199 | CC1(c2ccc3c(c2)OCO3)NC(=O)NC1=O (configuration not stated)
199 to 201 | O=C(O)c1ccc(=O)n(-c2ccccc2F)n1
57 to 59 | CC(C)Oc1ncccc1O
147 to 149 | COc1ccc(CNc2nccs2)cc1
99 to 101 | O=C(NO)c1occc1CSc1ccccc1
111 to 113 | Cc1ccc(C(C)C(O)C(=O)O)cc1 (configuration not stated)
236 to 238 | Nc1ccc(Cl)cc1-c1nc2ccccc2[nH]1
139 to 141 | Cn1ncc(C(=O)O)c1N
70 to 72 | Cc1cc(Cl)nc(-c2ccccn2)n1
217 to 219 | O=C(CC(=O)Nc1ccc(F)cc1)Nc1ccc(F)cc1
145 to 147 | N#Cc1ccc(NC(=O)CC2CCCC2)cc1

SMILES | melting point [°C]
N#CCCn1cc(C(=O)O)c(-c2ccc([N+](=O)[O-])cc2)n1 | 220 to 222
Cc1c(C(=O)O)cnn1C1CCOCC1 | 207 to 209
COc1cc(Cl)c(C)cc1N | 102 to 103
